According to patent US20210267193A1, “Pest Repellent Agent” (Kao Corporation, priority 2018, published 2021):

Experiments:
pests = settings: content in the pest repellent composition; existing pest repellents; cited from earlier work
Aedes albopictus [1] = assay: Mosquito landing rate on replica skin substrate applied with repellent; format: in vivo; settings: for Landing rate (at 0.25 mg/cm^2): coverage 0.25 mg/cm^2 on polyurethane replica skin substrate
Procedure: (3) Mosquito Landing Rate
The repellent effect of the pest repellent was evaluated in terms of a mosquito landing rate.
(3-1) Preparation of Aedes albopictus
(§1) Female adults of Aedes albopictus were purchased from Mostop Inc. The adults were bred in a room at 28° C. and a relative humidity of 70% RH with a 12-hour light/dark cycle after delivery and appropriately used for tests. During breeding of mosquitoes, a 3% by mass sucrose aqueous solution was given as a feed.
(3-3) Calculation of Mosquito Landing Rate
The mosquito landing rate was determined by applying a repellent onto the aforementioned replica skin substrate in the manner as mentioned below to form a substrate surface, counting the number of mosquitoes landed on the substrate surface, and calculating the mosquito landing rate on the applied surface. This replica skin substrate is a disk having a diameter of 5 cm. Here, the term “landed” means that the mosquito stayed on the replica skin substrate for at least one second.
Four replica skin substrates were prepared, two of which were uniformly applied with a repellent with a fingertip wearing a rubber glove, and the other two were not applied with the repellent. Thereafter, the four substrates were vertically mounted in a glass box having a length, a width, and a height of about 6 cm on each side, such that the applied surface was located inside the boxy. This box has a circular hole with a diameter of 4 cm in the vertical and horizontal directions when viewed from the top, and by setting the aforementioned substrate, a part of the inner wall surface of the box can be made as the substrate surface. Two adjacent surfaces among the four surfaces of the inner wall of the box were set as substrates onto which the repellent was applied.
Four mosquitoes were enclosed in the glass-made box, and a shock was applied to force the mosquitoes to fly, thereby recording on what surface they first landed within 10 seconds. This was repeated 20 times, and the mosquito landing rate on the applied surface was calculated by the following equation.
Mosquito landing rate on applied surface (%)={(Number of mosquitoes landed on two surfaces of replica skin substrates applied with repellent)/(Number of mosquitoes landed on any of four surfaces of replica skin substrates)}×100
In the case of repeating the aforementioned test, fresh unused mosquitoes were used for every test, and the landing rate was calculated as an average.
It is expressed that as the landing rate is lower, the staying of mosquitoes can be suppressed, and the repellent effect is excellent.
In Comparative Example 2, a frosted glass-made substrate (Tempax #240, manufactured by Cosmode Co., Ltd.) was used in place of the replica skin substrate.
The liquid oily component shown in Table 1 was prepared, and the liquid oily component shown in Table 2 was uniformly applied onto the aforementioned replica skin substrate at a coverage of 0.5 mg/cm^2, and the mosquito landing rate was calculated.
In Example 1, each of the liquid oily components shown in Table 3 was uniformly applied onto the replica shin substrate at a coverage of 0.25 mg/cm^2, and the mosquito landing rate was calculated.

[2] = Measurement of viscosity (B-type rotational viscometer); format: physicochemical; settings: rotor M2 (12 or 6 rpm) or L adapter (30 rpm) as listed per sample
Procedure: (2) Measurement of Viscosity
Viscometer TVB-10, manufactured by […] Co., Ltd. was used as a B-type rotational viscometer according to JIS K7117-1:1999. As to components to be measured, a viscosity value greatly differs for every sample, and therefore, it is difficult to accurately measure all components under a single measurement condition. Then, the measurement was performed using two types of rotors. The viscosity was first measured at a rotational speed of 12 rpm using a rotor M2 in an environment at 23° C. At this time, the component having a viscosity of 2,500 mPa·s or more was again measured at a rotational speed of 6 rpm, to obtain the viscosity value.
On the other hand, the component having a viscosity of 20 mPa·s or less was again measured at a rotational speed of 30 rpm using an L adapter that is a rotor for low viscosity in an environment of 23° C., to obtain the viscosity value.

[3] = Measurement of surface tension (Wilhelmy method, Tensiometer K100); format: physicochemical; settings: static surface tension, platinum plate
Procedure: (1) Measurement of Surface Tension
An automatic surface tensiometer: Tensiometer K100 (manufactured by KRUSS GmbH) was used to measure the static surface tension by the Wilhelmy method using a platinum plate in an environment at 25° C.

Aedes albopictus [4] = assay: Mosquito landing rate using human forearm; format: in vivo; settings: 4 cm x 5 cm test site, 5 mg (0.25 mg/cm^2), about 50 mosquitoes, 28° C., 70% RH
Procedure: (4) Evaluation of Mosquito Landing Rate Using Human Forearm
The repellent effect of the pest repellent on human forearm was evaluated in terms of a mosquito landing rate.
(4-1) Preparation of Aedes albopictus
as §1, with “feed. In order to facilitate the induction to the forearm, before the test, the food was changed to water, and the mosquitoes were fasted for 12 hours or more.” for “feed.”
(4-2) Calculation of Landing Rate
The forearm was washed with a body wash (Biore u, manufactured by Kao Corporation), and water droplets were wiped off with a paper towel, followed by performing acclimatization for 10 minutes at room temperature. Thereafter, a rubber glove (Singer Latex Long Glove M, manufactured by Utsunomiya Seisakusho Co., Ltd.) covering up to the elbow was put on the arm to be measured. The mosquito cannot bite through the rubber glove.
The rubber glove was cut off with scissors to expose a test site of 4 cm×5 cm toward the inside of the forearm. The area around the opening of the rubber glove is reinforced with a pressure-sensitive adhesive tape. Then, the resultant was moved to a constant temperature and constant humidity room (28° C., relative humidity: 70%), followed by performing acclimatization for 3 minutes. 5 mg (0.25 mg/cm^2) of the repellent was applied on the test site with a finger wearing the rubber glove, and immediately thereafter, the arm was inserted into a test box (Bug Dorm-1, manufactured by MegaView Science Co., Ltd., 30 cm×30 cm×30 cm). Approximately 50 test mosquitoes are released in this test box. The mosquito stays on the skin and then begins to bite by placing a needle on the skin. In order to prevent blood sucking into the forearm, mosquitoes are removed by using an inset suction pipe passed through a hole into which the arm is inserted just before starting biting. The measurement was terminated at the time when the total number of mosquitoes that succeeded in landing (reached just before the start of biting) and mosquitoes that touched the skin but escaped without landing reached 15. […] The mosquito landing rate was calculated by the following equation. […]
Each of the liquid oily components shown in Table 4 was applied onto the test site of the human forearm at a coverage of 0.25 mg/cm^2, and the mosquito landing rate on the applied surface of the forearm was calculated.

[5] = coverage 0.5 mg/cm^2 on polyurethane replica skin substrate, stay of at least 1 second counts as landed, lower = better repellent effect
[6] = lower = better repellent effect

Compound	Viscosity (at 23° C.) [2] [mPa · s]	Surface tension (at 25° C.) [3] [mN/m]	effective amount (pests) [% by mass]	Landing rate (at 0.5 mg/cm^2) (Aedes albopictus [1]; [5]) [%]	Landing rate on exposed area (at 0.25 mg/cm^2) (Aedes albopictus [4]) [%]	Landing rate (at 0.25 mg/cm^2) (Aedes albopictus [1]; [6]) [%]	Landing rate (at 0.5 mg/cm^2) (Aedes albopictus [1]; coverage 0.5 mg/cm^2 on frosted glass-made substrate (Tempax #240) in place of replica skin substrate) [%]
CCN(CC)C(=O)c1cccc(C)c1 [DEET, N,N-diethyl-m-toluamide]	–	–	≥ 4	–	–	–	–
CC(C)CCCCCCOC(=O)CCCCCC(C)C [Ester oil b1, Isononyl isononanoate]	6	25	–	22	–	–	–
CC(C)CCCCCCCCCCOC(=O)CCCCCC(C)C [Ester oil b2, Isotridecyl isononanoate]	11	28	–	15	–	–	–
CCCCC(CC)C(=O)OCC(C)(C)COC(=O)C(CC)CCCC (centres unmarked) [Ester oil b3, Neopentyl glycol di-2-ethylhexanoate]	–	28	–	12	–	–	–
CCCCCCCCCCCCCCCC(=O)OC(C)C [Ester oil b4, Isopropyl palmitate]	7	27	–	19	–	–	–
CCCCCCCCCCCCCC(=O)OC(C)C [Ester oil b5, Isopropyl myristate]	5	28	–	11	24	11	–
CCCCCCCCCCCCCCCCOC(C)CC(C)C (centres unmarked) [Ether oil c1, Cetyl-1,3-dimethylbutyl ether]	7	28	–	13	15	–	–
CCC(C)OC(=O)N1CCCCC1CCO (centres unmarked) [Icaridin]	–	–	≥ 5	–	–	–	–
OCCCO [Polyhydric alcohol fx1, 1,3-Propanediol, reference compound]	53	48	–	–	–	–	39
CC(C)=CCCC(C)CCO (centres unmarked) [citronellol]	–	–	≥ 10	–	–	–	–

Second part, led by results:

Viscosity (at 23° C.) [2] [mPa · s]	Surface tension (at 25° C.) [3] [mN/m]	Compound	effective amount (pests) [% by mass]	Landing rate (at 0.5 mg/cm^2) (Aedes albopictus [1]; [5]) [%]	Landing rate on exposed area (at 0.25 mg/cm^2) (Aedes albopictus [4]) [%]	Landing rate (at 0.25 mg/cm^2) (Aedes albopictus [1]; [6]) [%]	Landing rate (at 0.5 mg/cm^2) (Aedes albopictus [1]; coverage 0.5 mg/cm^2 on frosted glass-made substrate (Tempax #240) in place of replica skin substrate) [%]
15	28	CCCCCCCCCC(=O)OCC(C)(C)COC(=O)CCCCCCCCC [Ester oil b6, Neopentyl glycol dicaprate]	–	20	–	–	–
74	29	CCCCCCCCCCC(CO)CCCCCCCC (centres unmarked) [Higher alcohol e1, 2-Octyl dodecanol]	–	–	–	16	–
42	30	CC(C)=CCC/C(C)=C/CC/C(C)=C/CC/C=C(\C)CC/C=C(\C)CCC=C(C)C [Hydrocarbon oil d3, Squalene]	–	21	12	–	–
–	65	OCC(O)CO [Polyhydric alcohol fx2, Glycerin, reference compound]	–	–	75	–	–
1000	27	Polyglyceryl diisostearate [Ester oil bx1]	–	21	–	–	–
